Results reported in paper PMC8708274, “Unveiling the Membrane and Cell Wall Action of Antimicrobial Cyclic Lipopeptides: Modulation of the Spectrum of Activity” (Pharmaceutics, 2021).
Read-outs that look alike come from different tables or passages of the source. Positions of bridges follow the written chain, without caps; N, C: chain ends. Non-standard residues stand in square brackets, D forms with d. Residues, ends and D or L forms follow the SMILES beside them. No end group written: not given here. *: point of attachment. Decanoyl = CCCCCCCCCC(=O)*; X1 = CC[C@H](C)CCCCC(=O)*; Dab = NCC[C@H](N)C(=O)O

What was measured:
[1] = system: fresh rabbit erythrocytes; experiment: Hemolysis assay; type: cell-based; conditions: 335 μM lipopeptide, 1 h at 37 °C, 10 mM Tris 80 mM NaCl pH 7.4, absorbance 540 nm, average of three independent experiments
Procedure: Hemolytic activity was evaluated on fresh rabbit erythrocytes collected in EDTA collection tubes, as previously described. Briefly, an erythrocite suspension in buffer (10 mM Tris, 80 mM NaCl pH 7.4) was obtained by centrifugation (three times, 10 min at 4000 rpm) and adjusted at an optical density of 1 at 540 nm. Aliquots of 200 µL were incubated for 1 h at 37 °C with the different lipopeptides in 96-well polypropylene microtiter plates and centrifuged (15 min, 5000 rpm). Lipopetide-induced hemolysis was determined by measuring the absorbance at 540 nm of released hemoglobin (Asample) in the supernatant. Each determination was done by triplicate, and as negative and positive controls, erythrocytes in buffer (A0%) and in distilled water (A100%) were employed, respectively. Hemolysis was calculated according the following equation: % hemolysis = 100 · (Asample − A0%/A100% − A0%).

[2] = Kinetics of insertion into monolayers; type: binding, Salmonella enterica serotype Minnesota Re 595; conditions: initial pressure 32 mN·m^−1, peptide 0.48 μM, 25 min after injection, 10 mM Tris pH 7.4, 25 °C, average of three independent experiments (error < 10%)
Procedure: (§1) Monolayer studies were performed at room temperature (25 °C) on a monolayer system (NIMA Technology, Coventry, UK) by using a cylindrical PTFE (Teflon®, Wilmington, DE, USA) trough (5 cm diameter) containing a continuously stirred aqueous phase (12 mL, 10 mM Tris pH 7.4) and a Wilhelmy platinum plate connected to an electrobalance. The system was enclosed in a Plexiglass box to reduce surface contamination, and before each run, the plate and the trough were cleaned with hot water at >70 °C to avoid carryover of lipid or peptide. Monolayers of POPG, POPE/POPG (6:4), POPC, or LPS were formed by applying small drops of the lipid stock solutions in CHCl3 on the aqueous subphase with a microsyringe (Hamilton Co., Reno, NV, USA) to achieve a surface pressure of 32 mN·m^−1. After 10 min, allowing for solvent evaporation, a known aliquot of peptide was added without disturbance of the monolayer via an inlet port, and the surface pressure was continuously monitored.

[3] = system: Staphylococcus aureus ATTC 25923; type: cell-based; conditions: broth microdilution, MHB, overnight 37 °C, triplicate
Procedure: (§2) The minimal peptide concentration required to prevent the growth of a given test organism was determined after incubation overnight at 37 °C and was defined as the MIC. Activity was determined in representative bacteria, Escherichia coli ATTC 25922, Pseudomonas aeruginosa ATTC 27853, and Staphylococcus aureus ATTC 25923, using the broth microdilution method. Serial-two-fold dilutions of peptide (from 0.06 to 32 μg/mL) were performed in Mueller–Hinton broth (MHB) culture medium in sterile 96-well polypropylene microtiter plates inoculated with a final concentration of 5 × 10^5 CFU·mL^−1 of bacteria in each well. Bacteria were in the pre-exponential phase. Each determination was done by triplicate. In order to be considered acceptable, the three MIC results have to differ in only in one well, and the result was always given as the higher of the three. Drug-free and microorganism-free wells were used as positive and negative controls, respectively. Bacterial growth was visually determined on the basis of turbidity.

[4] = system: Escherichia coli ATTC 25922; type: cell-based; conditions: broth microdilution, MHB, overnight 37 °C, triplicate
Procedure: as §2

[5] = system: Pseudomonas aeruginosa ATTC 27853; type: cell-based; conditions: broth microdilution, MHB, overnight 37 °C, triplicate
Procedure: as §2

[6] = FRET lipid mixing (NBD-PE/Rh-PE); conditions: 1:1 vesicles with 0.6% NBD-PE or Rh-PE, total lipid 107 μM, 25 °C, 10 mM Tris pH 7.4
Procedure: Large unilamellar vesicles (LUVs) of POPG, POPE/POPG (6:4), or POPC, alone or with the fluorescently labeled phospholipids NBD-PE or Rh-PE, were prepared by the evaporation of a mixture of the lipids and probes in CHCl3. The solvent was removed by a gentle stream of nitrogen gas followed by overnight storage under vacuum. The dried films were hydrated with Tris 10 mM pH 7.4 to the desired final lipid concentration and then sonicated in a bath type sonicator (Lab Supplies, Hickesville, NY, Model G112SPIT) until a clear dispersion was obtained (typically 3–5 min). […] The average diameter was determined by dynamic light scattering with a Malvern II-C Autosizer, with a z-diameter between 111 and 117 nm, and a polydispersity of 0.1. […] Moreover, they contained 0.2% Rh-PE for monitoring the fluorescence before and after the separation of the unencapsulated material, which was carried out by gel filtration on a Sephadex G-50 column eluted with 10 mM Tris 80 mM NaCl. In this way, the final lipid concentration was calculated taking into account the loss of lipid and the dilution of the sample.
Peptide-induced lipid mixing of vesicles of different composition was investigated in the same spectrofluorimeter, measuring the increase in fluorescence resonance energy transfer (FRET) from an NBD-PE donor population to an Rh-PE acceptor population. […]

[7] = Kinetics of insertion into monolayers; type: binding; conditions: 25 min after injection, 10 mM Tris pH 7.4, 25 °C, average of three independent experiments (error < 10%); for Increase in surface pressure (Δπ), POPE/POPG: POPE/POPG 6:4, initial pressure 32 mN·m^−1, peptide 0.48 μM; for Increase in surface pressure (Δπ), POPC / Increase in surface pressure (Δπ), POPG: initial pressure 32 mN·m^−1, peptide 0.48 μM
Procedure: as §1

S. aureus = experiment: Transmission electron microscopy of treated bacteria; type: cell-based, Staphylococcus aureus; conditions: 1xMIC, 120 min, tryptone water
Procedure: (§3) Then, 500 µL of this culture were added to 50 mL of tryptone water for a concentration of ≈10^8 bacteria·mL^−1. Aliquots of 10 mL were incubated with the lipopeptide at the desired concentration for 2 h at room temperature, and bacterial cells were collected by centrifugation (12,857 g, 20 min). Samples were fixed with 2.5% glutaraldehyde in phosphate buffer for 2 h at 4 °C, washed with the same buffer, and post fixed with 1% osmium tetroxide in buffer containing 0.8% potassium ferricyanide at 4 °C. Then, the samples were dehydrated for 1 h in acetone, infiltrated in a graded series of Epon resin (Ted pella, Inc., Redding, CA, USA) during 2 days, and finally embedded in fresh Epon resin and polymerized at 60 °C during 48 h. Ultrathin sections were obtained using a Leica Ultracut UCT ultramicrotome (Leica, Vienna, Austria) and mounted on Formvar-coated copper grids. Sections were stained with 2% aqueous uranyl acetate and lead citrate and examined in a JEM-1010 electron microscope (Jeol, Tokyo, Japan).

[8] = system: Escherichia coli ATTC 25922; conditions: cited from earlier work
Procedure: Table 1 Sequences and antimicrobial activities of the synthesized peptides determined as minimal inhibitory concentration (MIC) calculated for different bacteria strains. | column: MIC/µg mL^−1 (µM) / EC ^1 || Figure 3 Comparative TEM micrographs of P. aeruginosa (left) and E. coli (right). Untreated bacteria (a,b); bacteria treated with polymyxin analogues at 1xMIC: P. aeruginosa with spB-3 (4 μg·mL^−1) (c), or with of spE-10 (1 μg·mL^−1) (e); E. coli treated with spB-3 (2 μg·mL^−1) (d) or spE-10 (8 μg·mL^−1) (f). Lipopeptides cause the alteration of the membranes, with blebs protruding, loss of membrane, clear cytoplasmic zones, and even ghost cells. Similar results are obtained with natural PxB ((g,h), this last one is adapted from (Rabanal et al. Sci. Rep. 2015).

[9] = system: Staphylococcus aureus ATTC 25923; conditions: cited from earlier work
Procedure: C6 analogues are devoid of antibacterial effect both against Gram-positive and Gram-negative bacteria, with MICs higher than 32 μg·mL^−1. C8 analogues show some activity, especially against P. aeruginosa but not on Gram-positive S. aureus. […] For example, MIC of 4 μg·mL^−1 and 2 μg·mL^−1 against P. aeruginosa for spB-3 and spE-3 respectively are obtained, where ... || Since some of the polymyxin analogues also have good activities against S. aureus, the effects on the cell morphology of this Gram-positive bacteria were determined.

[10] = system: Pseudomonas aeruginosa ATTC 27853; conditions: cited from earlier work
Procedure: C6 analogues are devoid of antibacterial effect both against Gram-positive and Gram-negative bacteria, with MICs higher than 32 μg·mL^−1. C8 analogues show some activity, especially against P. aeruginosa but not on Gram-positive S. aureus. […] For example, MIC of 4 μg·mL^−1 and 2 μg·mL^−1 against P. aeruginosa for spB-3 and spE-3 respectively are obtained, where ... || Figure 3 Comparative TEM micrographs of P. aeruginosa (left) and E. coli (right). Untreated bacteria (a,b); bacteria treated with polymyxin analogues at 1xMIC: P. aeruginosa with spB-3 (4 μg·mL^−1) (c), or with of spE-10 (1 μg·mL^−1) (e); E. coli treated with spB-3 (2 μg·mL^−1) (d) or spE-10 (8 μg·mL^−1) (f). Lipopeptides cause the alteration of the membranes, with blebs protruding, loss of membrane, clear cytoplasmic zones, and even ghost cells. Similar results are obtained with natural PxB ((g,h), this last one is adapted from (Rabanal et al. Sci. Rep. 2015).

E. coli = experiment: Transmission electron microscopy of treated bacteria; type: cell-based, Escherichia coli; conditions: 1xMIC, 2 h, room temperature, tryptone water
Procedure: as §3

P. aeruginosa = experiment: as above; type: cell-based, Pseudomonas aeruginosa; conditions: 1xMIC, 2 h, room temperature, tryptone water
Procedure: as §3

[11] = 5 × 10^5 CFU/mL, higher of the three
[12] = taken from the literature (analogues #37, #38, #39)
[13] = value in brackets, taken from the literature

## CC[C@H](C)CCCCC(=O)N[C@@H](CCN)C(=O)N[C@H](C(=O)N[C@@H](CCN)C(=O)N[C@H]1CCNC(=O)[C@H]([C@@H](C)O)NC(=O)[C@H](CCN)NC(=O)[C@H](CCN)NC(=O)[C@H](CC(C)C)NC(=O)[C@@H](CC(C)C)NC(=O)[C@H](CCN)NC1=O)[C@@H](C)O [PxE, Polymyxin E, reference compound] (X1-[Dab]T[Dab][Dab][Dab][dL]L[Dab][Dab]T; lactam 4-C)
[1]
  hemolysis: 13%
[2]
  Increase in surface pressure (Δπ), LPS: 11.1 mN·m^−1
[3]; [11]
  MIC SA: > 32 µg/mL
[3]; value in brackets
  MIC SA: > 27 µM
[4]; [11]
  MIC EC: 1 µg/mL
[4]; value in brackets
  MIC EC: 0.86 µM
[5]; [11]
  MIC PA: 0.5 µg/mL
[5]; value in brackets
  MIC PA: 0.43 µM
[6]
  lipid mixing (increase in FRET): no representative changes
[7]
  Increase in surface pressure (Δπ), POPE/POPG: 7.9 mN·m^−1
  Increase in surface pressure (Δπ), POPC: 0.8 mN·m^−1
  Increase in surface pressure (Δπ), POPG: 5.3 mN·m^−1

## Decanoyl-[Dab]T[Dab]C[Dab]FL[Dab][Dab]C (disulfide 4-10 (inferred)) [spB-3, the C10 analogue of PxB]
S. aureus
  ultrastructural effect on S. aureus (TEM): formation of spherical mesosome-like intracellular structures and membranous inclusion bodies together with deformation of the cell envelope
[2]
  Increase in surface pressure (Δπ), LPS: 11.0 mN·m^−1
[8]; [12]
  MIC EC: 2 µg/mL
[8]; [13]
  MIC EC: 1.6 µM
[9]; [12]
  MIC SA: 8 µg/mL
[9]; [13]
  MIC SA: 6.5 µM
[10]; [12]
  MIC PA: 4 µg/mL
[10]; [13]
  MIC PA: 3.2 µM
E. coli
  ultrastructural effect on E. coli (TEM): extensive bleb formation
[7]
  Increase in surface pressure (Δπ), POPE/POPG: 6.0 mN·m^−1
  Increase in surface pressure (Δπ), POPC: 2.0 mN·m^−1
  Increase in surface pressure (Δπ), POPG: 6.2 mN·m^−1
P. aeruginosa
  ultrastructural effect on P. aeruginosa (TEM): formation of blebs that protrude from the outer membrane
